In patent US6716596B2, “Agents for replacement of NAD+/NADH system in enzymatic reactions” (The Regents of the University of California, priority 2001, dated 2004):

How the values were obtained:
[1] = biological target: T1, horse liver alcohol dehydrogenase (HLADH) (Equus caballus, UniProt P00327); experiment: HLADH enzymatic chiral reduction of ketones with biomimic co-factor regeneration; assay type: biochemical
T1 construct: purchased Sigma
Experimental: FIG. 7 presents structures of ketone substrates 12-15 used for biomimic chiral synthesis of corresponding alcohols. Conversion of the substrates 12-15 to their corresponding alcohols are expressed in % yield, and TOF in d^−1 and S-enantiomer excess (ee) are also shown for each conversion. Corresponding values obtained with NAD^+ are given in parenthesis. The S-enantiomeric excess (ee) was determined by GLC with a modified β-cyclodextrin capillary column.
[Cp*Rh(bpy)(H2O)]OTf2 (1.9 mg, 2.61×10^−3 mmol), sodium formate (17.8 mg, 261.69×10^−3 mmol), NAD^+ (8.1 mg, 11.23×10^−3 mmol) and HLADH (10 units) were placed in a 10 mL Schlenk flask, and Schlenk techniques were followed to deoxygenate the solid mixture.
Under positive argon pressure, 5 mL of potassium phosphate buffer (100 mM, pH=7.02, deoxygenated) and carbonyl substrate (83.58×10^−3 mmol, deoxygenated) were added via syringe. The reaction flask was immediately securely capped with a glass-stopper and shaken with a shaker in 30° C. water-bath. The reaction was monitored by gas chromatography (GC), equipped with a β-cyclodextrin column (Supelco, β-DEX-225), and the products were identified by comparing the retention time with the corresponding authentic chiral samples and were confirmed by GC-MS. The enantiomeric excess of the products was determined directly by their relative area in the chromatogram. The progress of the reaction was obtained by mixing the reaction aliquot with an internal standard (cyclohexanol in phosphate buffer), and then calibrating the measured relative area in the chromatogram with their corresponding response factors. The reaction was monitored for 24 hours.
The same procedure as described in section A was followed, except that NAD^+ was substituted with any one of the biomimic compounds of the invention.

[2] = water solubility of biomimics

T1 sequence (P00327 2-375 limits assumed): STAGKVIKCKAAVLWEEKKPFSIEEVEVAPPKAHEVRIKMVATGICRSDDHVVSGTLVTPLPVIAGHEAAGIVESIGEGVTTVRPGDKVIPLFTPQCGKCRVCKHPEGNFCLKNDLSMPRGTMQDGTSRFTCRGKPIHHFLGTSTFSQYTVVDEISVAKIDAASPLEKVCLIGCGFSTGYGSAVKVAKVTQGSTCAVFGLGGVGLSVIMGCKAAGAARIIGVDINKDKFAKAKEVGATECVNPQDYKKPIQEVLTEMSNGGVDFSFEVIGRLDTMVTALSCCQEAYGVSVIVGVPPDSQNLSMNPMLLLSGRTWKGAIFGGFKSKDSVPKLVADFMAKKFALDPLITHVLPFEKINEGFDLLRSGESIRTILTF

recognition by HLADH as hydride catalyst of the chiral conversion [1] | water solubility [2] | SMILES
recognizes | completely water soluble | COP(=O)(O)OC[C@H]1O[C@@H](N2C=CCC(C(N)=O)=C2)[C@H](O)[C@@H]1O [Compound 7, β-1,4-dihydronicotinamide ribose-5′-methyl phosphate]
 | both water and organic solvent soluble | C=CC(=O)OCCOCCOCC(=O)[n+]1cccc(C(N)=O)c1.[Br-] [Compound 10, 1-(8-acryloyloxy-3,6-dioxaoctanoyl)-3-carbamoylpyridinium bromide]
